Experimental data as given in US11844790B2, “Methods of treating hidradenitis suppurativa” (CHEMOCENTRYX, INC., priority 2020, dated 2023).
Marks after values point to notes of the source that are not given here.

Key:
[1] = system: patients with moderate HS (Hurley Stage II) or severe HS (Hurley Stage III); experiment: Phase II AURORA clinical trial, Hidradenitis Suppurativa Clinical Response (HiSCR) and secondary efficacy endpoints; assay type: in vivo, human; settings: for HiSCR (%) / HiSCR n/N / HiSCR Δ % vs placebo: week 12
Method: (§1) The study is a randomized, double-blind, placebo-controlled, three group Phase 2 trial in approximately 390 subjects with moderate to severe hidradenitis suppurativa (Hurley stage II or III). Subjects will be randomized 1:1:1 to a treatment of 10 mg Avacopan twice daily, 30 mg Avacopan twice daily or placebo for 12 weeks. Other systemic treatments for HS including anti-TNF-αtreatments are prohibited. Stable antibiotic therapy with doxycycline or minocycline is allowed as specified in the protocol. Subjects treated with 10 mg or 30 mg twice daily during the blinded, placebo-controlled 12-week treatment period will be followed by an additional 24-week, active treatment period during which they will continue to receive the same dose regimen, either 10 mg or 30 mg Avacopan twice daily. Subjects on placebo who complete the blinded, placebo-controlled 12-week period will be re-randomized 1:1 to receive 10 mg or 30 mg Avacopan twice daily during the 24-week active treatment period. During the 24-week active treatment period the treatment assignment to 10 mg or 30 mg twice daily will not be disclosed to the patient, study personnel at the site or the sponsor. Thereafter, all subjects will be followed without study drug for 8 weeks before they exit the study.
Subjects will be randomized 1:1:1 to receive 10 mg Avacopan twice daily, 30 mg Avacopan twice daily or matching placebo for 12 weeks in a double-blind, placebo-controlled manner.
(§2) The primary objectives of this clinical trial include: • 1. Evaluation of the efficacy of Avacopan compared to placebo in subjects with Hurley Stage II or III hidradenitis suppurativa (HS) based on subjects achieving a Hidradenitis Suppurativa Clinical Response (HiSCR) after 12 weeks of treatment. HiSCR is defined as at least a 50% reduction in abscess and inflammatory nodule (AN) count with no increase in abscess count and no increase in draining fistula count at Week 12 relative to baseline. • 2. Evaluation of the safety of Avacopan compared to placebo in these subjects based on the adverse event incidence, changes from baseline in laboratory parameters, and vital signs Secondary Objectives
The secondary objectives of this study include: • 1. Evaluation of the efficacy of Avacopan compared to placebo in these subjects include: • a. HiSCR: proportion of subjects achieving HiSCR by each timepoint, • b. The subject's global assessment of skin pain numeric rating scale (NRS), • c. The modified Sartorius score, and • d. Achieving an AN count of 0, 1, or 2 • 2. Assessment of subject reported outcomes including health-related quality-of-life changes based on the Short Form-36 version 2 (SF-36 v2), the EuroQOL-5D-5L (EQ-5D-5L), Hidradenitis Suppurativa Quality of Life (HiSQOL) Index, the Dermatology Life Quality Index (DLQI), and the Work Productivity and Activity Impairment Questionnaire: Specific Health Problem (WPAI: SHP) with Avacopan compared to placebo. • 3. Evaluation of the pharmacokinetic profile of Avacopan in subjects with HS. • 4. Evaluation of the safety and efficacy of Avacopan treatment from Day 1 by each timepoint up to Week 44 in subjects with HS. • 5. Evaluation of the efficacy of avacopan compared to placebo in these subjects include: • a. The Sartorius score, International HS Severity Scoring System (IHS4) score, HS Physician Global Assessment (HS-PGA), • b. Proportion of subjects who experienced flare, who experienced loss of response during Period 2, who received oral antibiotic rescue therapy or lesion intervention, and who received disallowed opioid pain therapy, and • c. The duration of flare in days. • 6. Evaluation of health-economic information. Study Treatments
The International Hidradenitis Suppurativa Severity Score (IHS4) is simple to calculate and validated with the use of existing physician-derived outcomes such as HS-PGA, Hurley classification, MSS or Expert Opinion classification) and patient-reported outcome measure (DLQI). […]

[2] = Solubility of Avacopan as a function of pH; assay type: physicochemical; settings: pH value of 3 or above (gastric fluid)
[3] = system: patients with moderate-to-severe HS; settings: human, in vivo
Method: as §1, §2
The majority of TEAEs were related to underlying HS and were mild to moderate.

[4] = Avacopan 10 mg BID, All patients
[5] = Avacopan 10 mg BID, Hurley Stage II
[6] = Avacopan 10 mg BID, Hurley Stage III
[7] = Avacopan 30 mg BID, All patients
[8] = Avacopan 30 mg BID, Hurley Stage II
[9] = Avacopan 30 mg BID, Hurley Stage III

solubility [2]: normally insoluble
SMILES: Cc1ccc(NC(=O)[C@H]2CCCN(C(=O)c3c(C)cccc3F)[C@H]2c2ccc(NC3CCCC3)cc2)cc1C(F)(F)F [Avacopan]
primary endpoint: proportion of all patients achieving HiSCR against placebo ([1]; 10 mg BID and 30 mg BID, combined study population (Hurley Stage II plus III), after 12 weeks): not achieved with statistical significance at either dose level
proportion of all patients achieving HiSCR against placebo ([1]; 30 mg BID, combined study population, after 12 weeks): numerical improvement
HiSCR response against placebo ([1]; 30 mg BID, pre-specified population of Hurley Stage III (severe) HS patients): statistically significant higher response than placebo
HiSCR (%) [1, 4]: (22.4) %
HiSCR n/N [1, 4]: 30/134
HiSCR Δ % vs placebo [1, 4]: −8.2%
HiSCR (%) [1, 5]: (21.4) %
HiSCR n/N [1, 5]: 18/84
HiSCR Δ % vs placebo [1, 5]: −13.8%
HiSCR (%) [1, 6]: (24.0) %
HiSCR n/N [1, 6]: 12/50
HiSCR Δ % vs placebo [1, 6]: 1.8%
HiSCR (%) [1, 7]: (35.1) %
HiSCR n/N [1, 7]: 47/134
HiSCR Δ % vs placebo [1, 7]: 4.4%
HiSCR (%) [1, 8]: (31.0) %
HiSCR n/N [1, 8]: 27/87
HiSCR Δ % vs placebo [1, 8]: −4.3%
HiSCR (%) [1, 9]: (42.6) %
HiSCR n/N [1, 9]: 20/47
HiSCR Δ % vs placebo ([1]; Avacopan 30 mg BID, Hurley Stage III, p = 0.0349): 20.3* %
AN (abscesses and inflammatory nodules) count, % change from baseline to week 12 relative to placebo ([1]; Hurley Stage III patients): Favorable reductions
International HS Severity Score (IHS4), % change from baseline to week 12 relative to placebo ([1]; Hurley Stage III patients): Favorable reductions
abscess count, % change from baseline to week 12 relative to placebo ([1]; Hurley Stage III patients): Favorable reductions
draining fistula count, % change from baseline to week 12 relative to placebo ([1]; Hurley Stage III patients): Favorable reductions
safety profile [3]: favorable safety profile
Serious TEAEs ([3]; 12 weeks): 1.5%
Treatment emergent adverse events (TEAEs) of all types ([3]; 12 weeks): 48.5%
